Test results from ChEMBL document CHEMBL3991601, “The target landscape of clinical kinase drugs” (Science, 2017).
Activity calls are given as the source filed them.

Assays:
[1] = molecular target: Glycogen synthase kinase-3 beta (Homo sapiens, UniProt P49841)
[2] = molecular target: Phosphatidylethanolamine-binding protein 1 (Homo sapiens, UniProt P30086)
[3] = molecular target: T1, Dual specificity protein kinase TTK (Homo sapiens, UniProt P33981)
T1 sequence (P33981 whole entry): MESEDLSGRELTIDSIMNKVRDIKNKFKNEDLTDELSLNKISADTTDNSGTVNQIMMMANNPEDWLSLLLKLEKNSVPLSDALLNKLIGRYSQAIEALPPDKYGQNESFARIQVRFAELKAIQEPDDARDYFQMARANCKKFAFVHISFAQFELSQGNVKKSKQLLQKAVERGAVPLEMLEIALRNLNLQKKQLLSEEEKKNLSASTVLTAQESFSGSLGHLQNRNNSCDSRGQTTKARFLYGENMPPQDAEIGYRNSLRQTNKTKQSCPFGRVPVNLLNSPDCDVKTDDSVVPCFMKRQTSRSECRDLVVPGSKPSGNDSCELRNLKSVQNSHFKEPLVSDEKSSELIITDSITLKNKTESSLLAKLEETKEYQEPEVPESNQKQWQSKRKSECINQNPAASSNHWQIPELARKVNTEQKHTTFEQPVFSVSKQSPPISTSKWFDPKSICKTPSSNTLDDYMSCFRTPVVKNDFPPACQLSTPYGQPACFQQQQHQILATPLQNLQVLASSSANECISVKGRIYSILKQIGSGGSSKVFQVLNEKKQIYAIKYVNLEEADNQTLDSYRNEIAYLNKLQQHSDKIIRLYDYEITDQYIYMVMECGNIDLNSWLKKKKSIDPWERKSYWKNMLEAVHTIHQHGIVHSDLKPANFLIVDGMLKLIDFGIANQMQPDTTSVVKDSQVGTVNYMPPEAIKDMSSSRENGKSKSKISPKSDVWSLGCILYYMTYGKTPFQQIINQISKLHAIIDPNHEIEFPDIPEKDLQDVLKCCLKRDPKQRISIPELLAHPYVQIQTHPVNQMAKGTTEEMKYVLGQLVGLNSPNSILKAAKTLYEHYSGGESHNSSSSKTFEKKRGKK

[4] = molecular target: Serine/threonine-protein kinase N3 (Homo sapiens, UniProt Q6P5Z2)
[5] = molecular target: T2, Isoleucine--tRNA ligase, mitochondrial (Homo sapiens, UniProt Q9NSE4)
T2 sequence (Q9NSE4 whole entry): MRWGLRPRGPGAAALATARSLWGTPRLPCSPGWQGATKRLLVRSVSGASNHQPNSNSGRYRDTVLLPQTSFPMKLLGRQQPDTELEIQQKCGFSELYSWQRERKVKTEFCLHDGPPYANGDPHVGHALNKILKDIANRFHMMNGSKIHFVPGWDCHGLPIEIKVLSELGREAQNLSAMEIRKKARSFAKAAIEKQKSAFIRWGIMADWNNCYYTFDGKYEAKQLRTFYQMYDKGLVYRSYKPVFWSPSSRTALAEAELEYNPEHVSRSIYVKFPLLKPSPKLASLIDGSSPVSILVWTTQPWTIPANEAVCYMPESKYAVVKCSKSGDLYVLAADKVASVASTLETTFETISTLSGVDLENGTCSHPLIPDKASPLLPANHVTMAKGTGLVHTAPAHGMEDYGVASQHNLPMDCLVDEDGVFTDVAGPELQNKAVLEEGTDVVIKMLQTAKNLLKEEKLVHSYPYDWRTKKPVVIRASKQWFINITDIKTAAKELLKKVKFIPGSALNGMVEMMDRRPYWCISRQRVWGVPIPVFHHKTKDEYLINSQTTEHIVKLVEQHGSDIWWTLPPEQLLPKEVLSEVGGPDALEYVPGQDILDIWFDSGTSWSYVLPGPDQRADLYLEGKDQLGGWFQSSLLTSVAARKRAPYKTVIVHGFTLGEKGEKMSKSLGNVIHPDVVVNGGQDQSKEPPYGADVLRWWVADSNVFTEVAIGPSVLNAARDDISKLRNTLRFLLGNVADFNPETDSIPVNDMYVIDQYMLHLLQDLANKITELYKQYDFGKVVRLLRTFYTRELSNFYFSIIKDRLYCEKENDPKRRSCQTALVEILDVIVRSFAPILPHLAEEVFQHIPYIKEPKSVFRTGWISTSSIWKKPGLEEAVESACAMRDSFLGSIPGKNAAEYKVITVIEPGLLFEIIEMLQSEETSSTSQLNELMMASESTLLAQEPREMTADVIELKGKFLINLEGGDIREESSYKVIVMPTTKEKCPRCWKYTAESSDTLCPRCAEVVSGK

[6] = molecular target: T3, Cyclin-dependent kinase-like 5 (Homo sapiens, UniProt O76039)
T3 sequence (O76039 whole entry): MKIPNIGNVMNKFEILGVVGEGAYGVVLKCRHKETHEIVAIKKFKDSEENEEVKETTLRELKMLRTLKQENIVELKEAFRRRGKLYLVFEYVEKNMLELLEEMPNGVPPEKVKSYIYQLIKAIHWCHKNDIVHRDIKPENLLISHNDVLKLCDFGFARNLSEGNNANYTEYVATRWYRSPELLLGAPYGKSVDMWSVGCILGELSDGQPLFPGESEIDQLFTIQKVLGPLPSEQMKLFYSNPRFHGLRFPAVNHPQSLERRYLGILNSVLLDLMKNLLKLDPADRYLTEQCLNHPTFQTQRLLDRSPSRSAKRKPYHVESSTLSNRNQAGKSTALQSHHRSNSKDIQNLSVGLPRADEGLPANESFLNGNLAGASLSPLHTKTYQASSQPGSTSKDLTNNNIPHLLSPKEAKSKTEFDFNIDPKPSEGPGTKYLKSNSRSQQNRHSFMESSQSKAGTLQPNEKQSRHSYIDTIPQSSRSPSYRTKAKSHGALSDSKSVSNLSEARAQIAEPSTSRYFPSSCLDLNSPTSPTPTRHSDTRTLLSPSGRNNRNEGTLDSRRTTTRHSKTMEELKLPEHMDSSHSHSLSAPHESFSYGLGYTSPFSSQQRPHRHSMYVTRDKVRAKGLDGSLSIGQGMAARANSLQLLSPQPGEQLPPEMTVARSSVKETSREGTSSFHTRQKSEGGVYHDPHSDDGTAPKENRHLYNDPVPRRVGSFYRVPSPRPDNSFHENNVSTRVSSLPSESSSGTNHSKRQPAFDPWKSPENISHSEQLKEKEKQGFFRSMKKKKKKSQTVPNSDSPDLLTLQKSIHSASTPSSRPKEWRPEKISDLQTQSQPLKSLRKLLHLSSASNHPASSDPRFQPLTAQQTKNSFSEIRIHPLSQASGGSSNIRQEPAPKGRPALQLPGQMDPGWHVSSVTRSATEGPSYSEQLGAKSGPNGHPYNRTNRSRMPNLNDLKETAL
Also: in the data inactive means no Kd found up to 30 µM.

Sequence of Glycogen synthase kinase-3 beta (P49841 whole entry): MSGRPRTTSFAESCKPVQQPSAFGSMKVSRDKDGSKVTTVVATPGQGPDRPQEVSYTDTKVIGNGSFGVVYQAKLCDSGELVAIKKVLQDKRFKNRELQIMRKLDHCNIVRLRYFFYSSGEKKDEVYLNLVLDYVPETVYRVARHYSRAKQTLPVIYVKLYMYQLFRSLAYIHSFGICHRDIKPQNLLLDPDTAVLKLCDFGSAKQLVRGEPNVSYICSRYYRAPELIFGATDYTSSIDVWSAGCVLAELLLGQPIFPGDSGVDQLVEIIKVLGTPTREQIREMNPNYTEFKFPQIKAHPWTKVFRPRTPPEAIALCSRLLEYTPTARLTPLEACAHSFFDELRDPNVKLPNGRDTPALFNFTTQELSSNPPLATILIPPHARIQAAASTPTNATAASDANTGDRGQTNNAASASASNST
Sequence of Serine/threonine-protein kinase N3 (Q6P5Z2 whole entry): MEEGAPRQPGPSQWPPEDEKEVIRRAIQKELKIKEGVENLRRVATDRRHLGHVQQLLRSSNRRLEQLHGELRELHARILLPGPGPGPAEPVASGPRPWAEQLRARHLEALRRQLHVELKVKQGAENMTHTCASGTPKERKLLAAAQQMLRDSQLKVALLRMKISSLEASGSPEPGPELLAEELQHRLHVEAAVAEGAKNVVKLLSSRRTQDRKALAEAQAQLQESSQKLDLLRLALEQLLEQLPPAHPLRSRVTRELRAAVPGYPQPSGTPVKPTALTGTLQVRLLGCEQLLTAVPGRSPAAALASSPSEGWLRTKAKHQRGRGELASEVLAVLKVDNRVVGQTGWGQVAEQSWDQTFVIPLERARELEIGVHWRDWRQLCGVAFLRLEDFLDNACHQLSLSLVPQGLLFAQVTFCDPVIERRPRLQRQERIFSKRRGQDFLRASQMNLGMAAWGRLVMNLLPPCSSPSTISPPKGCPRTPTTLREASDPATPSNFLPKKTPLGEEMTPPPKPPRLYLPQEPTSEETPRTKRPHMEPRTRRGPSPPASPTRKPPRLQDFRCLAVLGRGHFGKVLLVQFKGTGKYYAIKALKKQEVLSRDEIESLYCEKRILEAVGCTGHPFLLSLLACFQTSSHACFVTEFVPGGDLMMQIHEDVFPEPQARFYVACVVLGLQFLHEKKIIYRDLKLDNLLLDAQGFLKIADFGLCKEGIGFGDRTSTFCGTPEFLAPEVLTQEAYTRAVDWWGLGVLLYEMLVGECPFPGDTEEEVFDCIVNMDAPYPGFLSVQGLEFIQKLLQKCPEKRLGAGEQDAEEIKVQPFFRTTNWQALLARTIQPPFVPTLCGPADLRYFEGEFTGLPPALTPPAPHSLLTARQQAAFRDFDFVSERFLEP
Sequence of Phosphatidylethanolamine-binding protein 1 (P30086 whole entry): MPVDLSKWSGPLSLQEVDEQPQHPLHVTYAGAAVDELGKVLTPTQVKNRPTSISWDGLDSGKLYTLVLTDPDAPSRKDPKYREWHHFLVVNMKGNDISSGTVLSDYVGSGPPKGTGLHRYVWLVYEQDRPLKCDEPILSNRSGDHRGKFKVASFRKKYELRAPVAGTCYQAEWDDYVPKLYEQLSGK

Structure (SMILES): Cc1c(NC(=O)OC[C@@H]2COCCN2)cn2ncnc(Nc3ccc4c(cnn4Cc4cccc(F)c4)c3)c12 [AC-480]
- Kd [1]: > 30 µM (inactive)
- Kd [2]: > 30 µM (inactive)
- Kd [3]: > 30 µM (inactive)

Structure (SMILES): CN(C)C/C=C/C(=O)Nc1cc2c(Nc3ccc(F)c(Cl)c3)ncnc2cc1O[C@H]1CCOC1 [AFATINIB]
- Kd [2]: > 30 µM (inactive)
- Kd [4]: > 30 µM (inactive)

Structure (SMILES): S=C(NCc1ccc2c(c1)OCO2)N1CCN(c2ncnc3c2oc2ccccc23)CC1 [AMUVATINIB]
- Kd [1]: > 30 µM (inactive)
- Kd [5]: > 30 µM (inactive)
- Kd [2]: > 30 µM (inactive)
- Kd [4]: > 30 µM (inactive)

Structure (SMILES): NC[C@@](O)(c1ccc(Cl)cc1)c1ccc(-c2cn[nH]c2)cc1 [AT-13148]
- Kd [1]: > 30 µM (inactive)
- Kd [5]: > 30 µM (inactive)
- Kd [2]: > 30 µM (inactive)

Structure (SMILES): COc1ccc(-c2ccc3ncc4c(c3c2)n(-c2ccc(N3CCNCC3)c(C(F)(F)F)c2)c(=O)n4C)cn1 [BGT-226 FREE BASE]
- Kd [1]: > 30 µM (inactive)
- Kd [5]: > 30 µM (inactive)
- Kd [2]: > 30 µM (inactive)
- Kd [3]: > 30 µM (inactive)

Structure (SMILES): COc1cccc(Nc2ncnn3ccc(CN4CC[C@@H](N)[C@H](O)C4)c23)c1 [BMS-690514]
- Kd [6]: > 30 µM (inactive)
- Kd [1]: > 30 µM (inactive)
- Kd [2]: > 30 µM (inactive)
- Kd [3]: > 30 µM (inactive)

Structure (SMILES): COc1cc2nccc(Oc3ccc(NC(=O)C4(C(=O)Nc5ccc(F)cc5)CC4)cc3)c2cc1OC [CABOZANTINIB]
- Kd [1]: > 30 µM (inactive)
- Kd [5]: > 30 µM (inactive)
- Kd [2]: > 30 µM (inactive)
- Kd [3]: > 30 µM (inactive)

Structure (SMILES): c1cc(OCCN2CCCCC2)cc(-c2n[nH]c3ccc(-c4nc[nH]n4)cc23)c1 [CC-401]
- Kd [6]: > 30 µM (inactive)
- Kd [2]: > 30 µM (inactive)
- Kd [4]: > 30 µM (inactive)
- Kd [3]: > 30 µM (inactive)

Structure (SMILES): CC1(COc2ccc3c(c2)ncn3-c2ccc3cccc(N4CCC(N)CC4)c3n2)COC1 [CRENOLANIB]
- Kd [6]: > 30 µM (inactive)
- Kd [1]: > 30 µM (inactive)
- Kd [5]: > 30 µM (inactive)
- Kd [2]: > 30 µM (inactive)
- Kd [4]: > 30 µM (inactive)

Structure (SMILES): COc1cc2ncnc(Nc3ccc(F)c(Cl)c3)c2cc1NC(=O)/C=C/CN1CCCCC1 [DACOMITINIB ANHYDROUS]
- Kd [6]: > 30 µM (inactive)
- Kd [1]: > 30 µM (inactive)
- Kd [2]: > 30 µM (inactive)

Structure (SMILES): CC[C@@](C)(Nc1ccnc(-c2c[nH]c3ncccc23)n1)C(=O)NCC(F)(F)F [DECERNOTINIB]
- Kd [6]: > 30 µM (inactive)
- Kd [1]: > 30 µM (inactive)

Structure (SMILES): O=S(=O)(c1cccc2cnccc12)N1CCCNCC1 [FASUDIL]
- Kd [2]: > 30 µM (inactive)
- Kd [3]: > 30 µM (inactive)

Structure (SMILES): CCc1nc(C(N)=O)c(Nc2ccc(N3CCC(N4CCN(C)CC4)CC3)c(OC)c2)nc1NC1CCOCC1 [GILTERITINIB]
- Kd [6]: > 30 µM (inactive)
- Kd [1]: > 30 µM (inactive)
- Kd [3]: > 30 µM (inactive)

Structure (SMILES): COc1cc2ncnc3c2cc1OCCCCCN(C)Cc1ccc(Br)cc1N3 [JNJ-26483327]
- Kd [1]: > 30 µM (inactive)
- Kd [5]: > 30 µM (inactive)
- Kd [2]: > 30 µM (inactive)

Structure (SMILES): C[C@]1(O)C[C@@H](c2nc(-c3ccc4ccc(-c5ccccc5)nc4c3)c3c(N)nccn32)C1 [LINSITINIB]
- Kd [4]: > 30 µM (inactive)
- Kd [3]: > 30 µM (inactive)

Structure (SMILES): O=C(NOC[C@H](O)CO)c1ccc(F)c(F)c1Nc1ccc(I)cc1F [MIRDAMETINIB]
- Kd [1]: > 30 µM (inactive)
- Kd [4]: > 30 µM (inactive)
- Kd [3]: > 30 µM (inactive)

Structure (SMILES): CC1(C)CNc2cc(NC(=O)c3cccnc3NCc3ccncc3)ccc21 [MOTESANIB]
- Kd [2]: > 30 µM (inactive)

Structure (SMILES): COc1cccc2cc(-c3nc([C@H]4CC[C@H](C(=O)O)CC4)n4ncnc(N)c34)[nH]c12 [OSI-027]
- Kd [1]: > 30 µM (inactive)
- Kd [5]: > 30 µM (inactive)
- Kd [2]: > 30 µM (inactive)

Structure (SMILES): C=CC(=O)Nc1cc(Nc2nccc(-c3cn(C)c4ccccc34)n2)c(OC)cc1N(C)CCN(C)C [OSIMERTINIB]
- Kd [6]: > 30 µM (inactive)
- Kd [1]: > 30 µM (inactive)
- Kd [5]: > 30 µM (inactive)
- Kd [2]: > 30 µM (inactive)
- Kd [4]: > 30 µM (inactive)

Structure (SMILES): FC(F)(F)c1ccc(CNc2ccc(Cc3c[nH]c4ncc(Cl)cc34)cn2)cn1 [PEXIDARTINIB]
- Kd [1]: > 30 µM (inactive)
- Kd [3]: > 30 µM (inactive)

Structure (SMILES): CN(c1ncccc1CNc1nc(Nc2ccc3c(c2)CC(=O)N3)ncc1C(F)(F)F)S(C)(=O)=O [PF-00562271]
- Kd [6]: > 30 µM (inactive)
- Kd [5]: > 30 µM (inactive)
- Kd [2]: > 30 µM (inactive)
- Kd [4]: > 30 µM (inactive)

Structure (SMILES): CC(C)CC(=O)Nc1[nH]nc2c1CN(C(=O)C1CCN(C)CC1)C2(C)C [PHA-793887]
- Kd [1]: 0.012 µM (active)
- Kd [5]: > 30 µM (inactive)
- Kd [2]: > 30 µM (inactive)

Structure (SMILES): Cn1cnc2c(F)c(Nc3ccc(Br)cc3Cl)c(C(=O)NOCCO)cc21 [SELUMETINIB]
- Kd [5]: > 30 µM (inactive)
- Kd [2]: > 30 µM (inactive)
- Kd [4]: > 30 µM (inactive)

Structure (SMILES): C=CCN(/C=C1/C(=O)O[C@H](COC)[C@@]2(C)C1=C(O)C(=O)C1=C2[C@H](OC(C)=O)C[C@]2(C)C(=O)CC[C@@H]12)CC=C [SONOLISIB]
- Kd [6]: > 30 µM (inactive)
- Kd [1]: > 30 µM (inactive)

Structure (SMILES): CC(C)(O)CC(=O)NCCn1ccc2ncnc(Nc3ccc(Oc4cccc(C(F)(F)F)c4)c(Cl)c3)c21 [TAK-285]
- Kd [6]: > 30 µM (inactive)
- Kd [1]: > 30 µM (inactive)
- Kd [2]: > 30 µM (inactive)
- Kd [4]: > 30 µM (inactive)

Structure (SMILES): Cc1cc(C(=O)Nc2cc(Oc3ccc4nc(NC(=O)C5CC5)cn4n3)ccc2C)n(C)n1 [TAK-593]
- Kd [6]: > 30 µM (inactive)
- Kd [1]: > 30 µM (inactive)

Structure (SMILES): Cn1c(=O)c(F)c(Nc2ccc(I)cc2F)c2c(=O)n(C[C@@H](O)CO)cnc21 [TAK-733]
- Kd [1]: > 30 µM (inactive)
- Kd [2]: > 30 µM (inactive)
- Kd [4]: > 30 µM (inactive)
- Kd [3]: > 30 µM (inactive)

Structure (SMILES): COc1cc2c(N3CCN(C(=O)Nc4ccc(OC(C)C)cc4)CC3)ncnc2cc1OCCCN1CCCCC1 [TANDUTINIB]
- Kd [4]: > 30 µM (inactive)
